Results reported in PubChem BioAssay AID1982 (Sanford-Burnham Center for Chemical Genomics, 2009).
Activity calls are given as the source filed them. How the calls were made is not given here.

Tests used:
Assay in all cases: kinase panel binding selectivity, selectivity assay, biochemical, KINOMEscan (AID 1982)
[1] = target: Serine/threonine-protein kinase SIK2 (Homo sapiens) (UniProt Q9H0K1); conditions: KINOMEscan 353-kinase binding panel, qPCR; SNF1LK2; at 10 µM; hits give low values
RIOK2 = conditions: KINOMEscan 353-kinase binding panel, qPCR, at 10 µM, hits give low values
[2] = target: BDNF/NT-3 growth factors receptor (Homo sapiens) (UniProt Q16620); conditions: KINOMEscan 353-kinase binding panel, qPCR; TRKB; at 10 µM; hits give low values
[3] = target: Tyrosine-protein kinase JAK3 (Homo sapiens) (UniProt P52333); conditions: KINOMEscan 353-kinase binding panel, qPCR; JAK3(Kin.Dom.2); at 10 µM; hits give low values
MYLK = conditions: KINOMEscan 353-kinase binding panel, qPCR, at 10 µM, hits give low values
EPHA5 = conditions: KINOMEscan 353-kinase binding panel, qPCR, at 10 µM, hits give low values
STK16 = conditions: KINOMEscan 353-kinase binding panel, qPCR, at 10 µM, hits give low values
MLK3 = conditions: KINOMEscan 353-kinase binding panel, qPCR, at 10 µM, hits give low values
TTK = conditions: KINOMEscan 353-kinase binding panel, qPCR, at 10 µM, hits give low values
[4] = target: Serine/threonine-protein kinase 33 (Homo sapiens) (UniProt Q9BYT3); conditions: KINOMEscan 353-kinase binding panel, qPCR; STK33; at 10 µM; hits give low values
SNARK = conditions: KINOMEscan 353-kinase binding panel, qPCR, at 10 µM, hits give low values
PIK3CB = conditions: KINOMEscan 353-kinase binding panel, qPCR, at 10 µM, hits give low values
[5] = target: Serine/threonine-protein kinase BRSK1 (Homo sapiens) (UniProt Q8TDC3); conditions: KINOMEscan 353-kinase binding panel, qPCR, at 10 µM, hits give low values
YANK2 = conditions: KINOMEscan 353-kinase binding panel, qPCR, at 10 µM, hits give low values
[6] = target: Cyclin-dependent kinase 7 (Homo sapiens) (UniProt P50613); conditions: KINOMEscan 353-kinase binding panel, qPCR; CDK7; at 10 µM; hits give low values
[7] = target: Tyrosine-protein kinase receptor TYRO3 (Homo sapiens) (UniProt Q06418); conditions: KINOMEscan 353-kinase binding panel, qPCR, at 10 µM, hits give low values
[8] = target: Death-associated protein kinase 3 (Homo sapiens) (UniProt O43293); conditions: KINOMEscan 353-kinase binding panel, qPCR; DAPK3; at 10 µM; hits give low values
[9] = target: Proto-oncogene tyrosine-protein kinase Src (Homo sapiens) (UniProt P12931); conditions: KINOMEscan 353-kinase binding panel, qPCR, at 10 µM, hits give low values
SRPK3 = conditions: KINOMEscan 353-kinase binding panel, qPCR, at 10 µM, hits give low values
ULK2 = conditions: KINOMEscan 353-kinase binding panel, qPCR, at 10 µM, hits give low values
GCN2(Kin.Dom.2,S808G) = conditions: KINOMEscan 353-kinase binding panel, qPCR, at 10 µM, hits give low values
[10] = target: Tyrosine-protein kinase Yes (Homo sapiens) (UniProt P07947); conditions: KINOMEscan 353-kinase binding panel, qPCR, at 10 µM, hits give low values
PKMYT1 = conditions: KINOMEscan 353-kinase binding panel, qPCR, at 10 µM, hits give low values
[11] = target: Dual specificity tyrosine-phosphorylation-regulated kinase 1B (Homo sapiens) (UniProt Q9Y463); conditions: KINOMEscan 353-kinase binding panel, qPCR; DYRK1B; at 10 µM; hits give low values
[12] = target: Protein kinase C delta type (Homo sapiens) (UniProt Q05655); conditions: KINOMEscan 353-kinase binding panel, qPCR; PRKCD; at 10 µM; hits give low values
MEK3 = conditions: KINOMEscan 353-kinase binding panel, qPCR, at 10 µM, hits give low values
CIT = conditions: KINOMEscan 353-kinase binding panel, qPCR, at 10 µM, hits give low values
[13] = target: Ephrin type-A receptor 2 (Homo sapiens) (UniProt P29317); conditions: KINOMEscan 353-kinase binding panel, qPCR; EPHA2; at 10 µM; hits give low values
[14] = target: Mitogen-activated protein kinase 3 (Homo sapiens) (UniProt P27361); conditions: KINOMEscan 353-kinase binding panel, qPCR; ERK1; at 10 µM; hits give low values
[15] = target: Calcium/calmodulin-dependent protein kinase type II subunit delta (Homo sapiens) (UniProt Q13557); conditions: KINOMEscan 353-kinase binding panel, qPCR; CAMK2D; at 10 µM; hits give low values
DDR1 = conditions: KINOMEscan 353-kinase binding panel, qPCR, at 10 µM, hits give low values
[16] = target: MAP kinase-activated protein kinase 2 (Homo sapiens) (UniProt P49137); conditions: KINOMEscan 353-kinase binding panel, qPCR; MAPKAPK2; at 10 µM; hits give low values
[17] = target: Cyclin-dependent kinase 8 (Homo sapiens) (UniProt P49336); conditions: KINOMEscan 353-kinase binding panel, qPCR; CDK8; at 10 µM; hits give low values
STK36 = conditions: KINOMEscan 353-kinase binding panel, qPCR, at 10 µM, hits give low values

Chain of Mitogen-activated protein kinase 3 (Homo sapiens) (P27361 whole entry, looked up): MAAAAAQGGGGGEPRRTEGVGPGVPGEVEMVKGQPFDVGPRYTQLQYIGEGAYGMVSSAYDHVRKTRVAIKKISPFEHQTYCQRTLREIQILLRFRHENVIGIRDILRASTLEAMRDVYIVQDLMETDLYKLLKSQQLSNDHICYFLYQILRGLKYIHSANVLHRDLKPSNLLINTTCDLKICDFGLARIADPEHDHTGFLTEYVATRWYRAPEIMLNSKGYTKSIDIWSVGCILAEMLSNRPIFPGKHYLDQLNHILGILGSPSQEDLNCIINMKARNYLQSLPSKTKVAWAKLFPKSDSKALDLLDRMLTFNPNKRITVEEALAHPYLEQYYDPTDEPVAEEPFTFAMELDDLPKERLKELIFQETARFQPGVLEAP
Chain of Calcium/calmodulin-dependent protein kinase type II subunit delta (Homo sapiens) (Q13557 whole entry, looked up): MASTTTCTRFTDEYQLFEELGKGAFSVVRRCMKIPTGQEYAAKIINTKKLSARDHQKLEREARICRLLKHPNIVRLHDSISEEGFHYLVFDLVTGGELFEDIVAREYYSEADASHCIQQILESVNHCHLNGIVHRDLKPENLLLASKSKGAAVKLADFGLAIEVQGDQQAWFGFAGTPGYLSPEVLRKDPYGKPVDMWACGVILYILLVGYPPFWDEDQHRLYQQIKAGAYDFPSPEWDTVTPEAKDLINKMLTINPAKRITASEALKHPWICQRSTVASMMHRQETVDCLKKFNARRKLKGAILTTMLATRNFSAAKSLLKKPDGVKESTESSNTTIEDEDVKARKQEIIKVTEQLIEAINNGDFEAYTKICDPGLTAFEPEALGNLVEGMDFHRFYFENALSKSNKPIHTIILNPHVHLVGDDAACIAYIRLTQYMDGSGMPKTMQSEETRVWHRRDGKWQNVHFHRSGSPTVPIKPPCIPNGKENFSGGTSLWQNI
Chain of Serine/threonine-protein kinase 33 (Homo sapiens) (Q9BYT3 whole entry, looked up): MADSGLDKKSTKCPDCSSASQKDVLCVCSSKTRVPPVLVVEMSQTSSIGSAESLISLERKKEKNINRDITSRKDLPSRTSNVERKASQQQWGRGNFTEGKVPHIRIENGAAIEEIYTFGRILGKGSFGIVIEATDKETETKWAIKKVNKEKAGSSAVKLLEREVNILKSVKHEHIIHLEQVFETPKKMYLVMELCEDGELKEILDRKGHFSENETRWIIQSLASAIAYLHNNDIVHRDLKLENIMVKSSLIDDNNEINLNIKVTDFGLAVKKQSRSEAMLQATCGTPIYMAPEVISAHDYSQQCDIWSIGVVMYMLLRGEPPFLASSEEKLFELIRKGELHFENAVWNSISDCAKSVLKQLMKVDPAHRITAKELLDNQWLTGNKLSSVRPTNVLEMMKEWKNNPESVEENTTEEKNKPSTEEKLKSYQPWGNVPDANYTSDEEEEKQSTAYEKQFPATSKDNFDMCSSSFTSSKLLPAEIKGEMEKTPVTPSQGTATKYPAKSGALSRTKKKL
Chain of Protein kinase C delta type (Homo sapiens) (Q05655 whole entry, looked up): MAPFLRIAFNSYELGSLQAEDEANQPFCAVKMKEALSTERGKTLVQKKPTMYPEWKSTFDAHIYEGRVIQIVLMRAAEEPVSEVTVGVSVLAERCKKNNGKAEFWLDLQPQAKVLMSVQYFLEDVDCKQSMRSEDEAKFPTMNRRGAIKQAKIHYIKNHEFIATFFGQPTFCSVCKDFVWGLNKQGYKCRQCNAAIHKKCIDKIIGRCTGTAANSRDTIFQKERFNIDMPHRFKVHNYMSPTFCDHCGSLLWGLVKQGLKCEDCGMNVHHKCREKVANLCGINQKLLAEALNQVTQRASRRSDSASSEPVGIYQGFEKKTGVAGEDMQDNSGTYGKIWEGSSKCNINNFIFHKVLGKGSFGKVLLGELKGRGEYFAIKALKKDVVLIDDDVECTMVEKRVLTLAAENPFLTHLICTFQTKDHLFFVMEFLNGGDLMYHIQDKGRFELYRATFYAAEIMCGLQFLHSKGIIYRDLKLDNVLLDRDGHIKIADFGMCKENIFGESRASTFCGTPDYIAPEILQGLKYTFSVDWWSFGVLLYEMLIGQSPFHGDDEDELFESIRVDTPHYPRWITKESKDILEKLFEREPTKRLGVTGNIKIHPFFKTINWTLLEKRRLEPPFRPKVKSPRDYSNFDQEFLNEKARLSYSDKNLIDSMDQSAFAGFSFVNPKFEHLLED
Chain of Serine/threonine-protein kinase SIK2 (Homo sapiens) (Q9H0K1 whole entry, looked up): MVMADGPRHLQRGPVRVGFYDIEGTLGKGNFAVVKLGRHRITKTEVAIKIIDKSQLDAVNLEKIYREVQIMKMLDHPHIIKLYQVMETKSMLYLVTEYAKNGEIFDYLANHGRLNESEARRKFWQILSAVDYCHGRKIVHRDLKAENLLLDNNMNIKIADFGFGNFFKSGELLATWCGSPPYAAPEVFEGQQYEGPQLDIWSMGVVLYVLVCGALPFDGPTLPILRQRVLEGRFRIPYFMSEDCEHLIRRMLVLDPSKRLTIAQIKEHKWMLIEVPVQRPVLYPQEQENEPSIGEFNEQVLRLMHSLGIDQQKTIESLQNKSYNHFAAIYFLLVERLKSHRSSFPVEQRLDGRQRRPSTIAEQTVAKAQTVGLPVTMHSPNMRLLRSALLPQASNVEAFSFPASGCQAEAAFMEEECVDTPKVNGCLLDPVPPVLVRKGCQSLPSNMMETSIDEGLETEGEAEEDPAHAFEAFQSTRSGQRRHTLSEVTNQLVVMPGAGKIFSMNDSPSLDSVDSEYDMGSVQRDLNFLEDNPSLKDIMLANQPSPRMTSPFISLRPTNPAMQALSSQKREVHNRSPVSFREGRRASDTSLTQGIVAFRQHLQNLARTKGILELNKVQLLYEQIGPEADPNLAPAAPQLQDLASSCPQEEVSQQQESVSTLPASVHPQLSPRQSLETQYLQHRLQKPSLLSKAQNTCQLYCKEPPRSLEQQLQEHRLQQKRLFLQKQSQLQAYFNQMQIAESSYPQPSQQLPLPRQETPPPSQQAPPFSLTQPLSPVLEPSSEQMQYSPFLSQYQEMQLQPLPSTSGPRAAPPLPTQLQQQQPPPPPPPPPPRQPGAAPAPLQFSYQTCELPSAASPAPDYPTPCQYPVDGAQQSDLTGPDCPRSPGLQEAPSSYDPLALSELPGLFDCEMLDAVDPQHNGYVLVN
Chain of MAP kinase-activated protein kinase 2 (Homo sapiens) (P49137 whole entry, looked up): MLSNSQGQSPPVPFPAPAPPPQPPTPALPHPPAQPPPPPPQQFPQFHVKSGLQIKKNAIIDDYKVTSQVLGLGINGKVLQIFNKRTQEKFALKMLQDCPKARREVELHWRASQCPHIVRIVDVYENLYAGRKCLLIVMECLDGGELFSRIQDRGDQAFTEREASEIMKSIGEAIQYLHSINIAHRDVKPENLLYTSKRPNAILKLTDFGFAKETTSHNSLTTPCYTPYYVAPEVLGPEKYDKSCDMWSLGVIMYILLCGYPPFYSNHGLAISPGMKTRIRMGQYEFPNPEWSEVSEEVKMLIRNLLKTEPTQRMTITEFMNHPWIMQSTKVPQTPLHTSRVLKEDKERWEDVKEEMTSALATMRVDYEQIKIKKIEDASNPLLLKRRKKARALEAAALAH
Chain of Proto-oncogene tyrosine-protein kinase Src (Homo sapiens) (P12931 whole entry, looked up): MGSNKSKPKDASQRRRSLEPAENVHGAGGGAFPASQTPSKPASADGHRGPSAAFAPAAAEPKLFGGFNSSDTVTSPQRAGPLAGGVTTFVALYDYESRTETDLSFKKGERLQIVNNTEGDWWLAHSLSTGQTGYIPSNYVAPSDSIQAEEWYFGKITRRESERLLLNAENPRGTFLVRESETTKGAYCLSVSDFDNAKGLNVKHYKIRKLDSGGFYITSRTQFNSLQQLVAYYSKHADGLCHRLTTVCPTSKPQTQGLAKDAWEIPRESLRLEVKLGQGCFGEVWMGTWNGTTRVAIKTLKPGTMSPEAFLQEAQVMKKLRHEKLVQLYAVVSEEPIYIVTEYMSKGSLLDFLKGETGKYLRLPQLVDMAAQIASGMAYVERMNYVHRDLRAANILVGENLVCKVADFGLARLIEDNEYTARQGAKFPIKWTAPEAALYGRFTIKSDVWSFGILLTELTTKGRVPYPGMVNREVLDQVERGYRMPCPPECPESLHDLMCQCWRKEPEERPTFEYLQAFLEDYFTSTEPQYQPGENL
Chain of BDNF/NT-3 growth factors receptor (Homo sapiens) (Q16620 whole entry, looked up): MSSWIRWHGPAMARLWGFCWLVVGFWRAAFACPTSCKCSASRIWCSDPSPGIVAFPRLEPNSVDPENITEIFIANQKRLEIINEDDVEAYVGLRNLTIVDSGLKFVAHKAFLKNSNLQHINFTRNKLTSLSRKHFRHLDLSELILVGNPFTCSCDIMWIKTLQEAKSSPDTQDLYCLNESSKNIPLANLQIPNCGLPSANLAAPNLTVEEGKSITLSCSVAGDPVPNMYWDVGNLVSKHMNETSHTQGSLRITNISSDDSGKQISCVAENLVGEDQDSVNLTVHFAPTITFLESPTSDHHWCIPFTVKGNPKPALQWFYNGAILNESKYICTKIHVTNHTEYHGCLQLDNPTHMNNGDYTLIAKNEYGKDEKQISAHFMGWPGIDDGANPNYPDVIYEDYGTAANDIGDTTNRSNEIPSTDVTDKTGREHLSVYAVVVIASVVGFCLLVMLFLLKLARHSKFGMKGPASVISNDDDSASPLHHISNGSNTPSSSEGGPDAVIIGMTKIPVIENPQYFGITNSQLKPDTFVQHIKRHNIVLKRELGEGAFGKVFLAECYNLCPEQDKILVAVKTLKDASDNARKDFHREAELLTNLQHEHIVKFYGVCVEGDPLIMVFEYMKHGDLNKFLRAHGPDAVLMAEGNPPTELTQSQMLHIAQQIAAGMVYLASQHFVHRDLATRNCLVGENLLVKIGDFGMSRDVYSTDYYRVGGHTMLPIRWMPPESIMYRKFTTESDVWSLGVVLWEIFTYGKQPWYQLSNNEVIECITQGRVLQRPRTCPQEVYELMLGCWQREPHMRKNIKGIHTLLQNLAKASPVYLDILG

- percent of control binding [1]: 100% (inactive)
- percent of control binding (RIOK2): 96% (inactive)
- percent of control binding [2]: 100% (inactive)
- percent of control binding [3]: 100% (inactive)
- percent of control binding (MYLK): 80% (inactive)
- percent of control binding (EPHA5): 87% (inactive)
- percent of control binding (STK16): 77% (inactive)
- percent of control binding (MLK3): 99% (inactive)
- percent of control binding (TTK): 100% (inactive)
- percent of control binding [4]: 98% (inactive)
- percent of control binding (SNARK): 80% (inactive)
- percent of control binding (PIK3CB): 79% (inactive)
- percent of control binding [5]: 100% (inactive)
- percent of control binding (YANK2): 100% (inactive)
- percent of control binding [6]: 64% (inactive)
- percent of control binding [7]: 100% (inactive)
- percent of control binding [9]: 100% (inactive)
- percent of control binding (SRPK3): 87% (inactive)
- percent of control binding (ULK2): 84% (inactive)
- percent of control binding (GCN2(Kin.Dom.2,S808G)): 95% (inactive)
- percent of control binding [10]: 100% (inactive)
- percent of control binding (PKMYT1): 100% (inactive)
- percent of control binding [11]: 91% (inactive)
- percent of control binding [12]: 100% (inactive)
- percent of control binding (MEK3): 100% (inactive)
- percent of control binding (CIT): 100% (inactive)
- percent of control binding [13]: 100% (inactive)
- percent of control binding [14]: 94% (inactive)
- percent of control binding [15]: 89% (inactive)
- percent of control binding (DDR1): 100% (inactive)
- percent of control binding [16]: 81% (inactive)
- percent of control binding [17]: 93% (inactive)
- percent of control binding (STK36): 100% (inactive)
Structure (SMILES): Cc1cc2nc(NCCCO)n(CC(=O)c3cc(C(C)(C)C)c(O)c(C(C)(C)C)c3)c2cc1C
- percent of control binding [8]: 100% (inactive)
